Results as given in US20090215783A1, “COMPOSITION FOR INDUCTION OR INHIBITION OF STEM CELL DIFFERENTIATION” (CHOONGWAE PHARMA CORPORATION, priority 2006, published 2009).

Experiments:
[1] = test system: human bone marrow derived-mesenchymal stem cells (hBMMSC); assay: Osteogenesis modulating activity assay by test compound alone (ALP activity); type: cell-based; settings: Homo sapiens, 168 h; hBMMSC, 20 μM test compound alone, six to seven days; read-out: Osteogenesis: fold change of ALP activity compared with DMSO control
Experimental: Cell culture: Human bone marrow derived-mesenchymal stem cells (hBMMSC) were isolated from normal subjects.
Osteogenesis modulating activity assay by test compound alone: hBMMSC were cultivated in the culture medium and cells were seeded into 96-well culture plates and test compounds were dissolved in DMSO and diluted with culture media (final 0.01% DMSO) and added into the media (final concentration of test compound was 20 μM) and cultured in the CO2 incubator (37° C., 5% CO2). Culture medium was changed every two days with fresh one and compound was treated again whenever medium was changed. Six to seven days after incubation, Alkaline phosphatase activity of cell lysates was measured by colorimetry. For the determination of mineralization within the cells, Von Kossa staining or Alizarin Red S assay was performed 10-14 days after incubation.

[2] = test system: Mouse embryonic stem (ES) cells, TC1; assay: Cardiomyogenesis modulating activity assay (alpha-MHC promoter EGFP, embryoid bodies, FACS/fluorescence microscopy); type: cell-based; settings: embryoid bodies treated for 5 days, FACS
Experimental: a. Cell culture: Mouse embryonic stem (ES) cells, TC1 derived from 129/S6 strain were cultured on irradiated feeder layer in the culture medium which is high-glucose DMEM (Gibco) BRL, Germany) supplemented with 15% FBS (Hyclone), 0.1 mM beta-mercaptoethanol, […] sodium pyruvate, 1 mM L-glutamine and 1× non-essential amino acids.
b. Establishment of alpha-MHC stably transformed ES cell line: A construct (FIG. 8) containing 1.8 kb promoter sequence of the mouse alpha-MHC gene between EcoRI and SalI sites of pEGFP-1 (Clontech Laboratories, Inc, CA, USA) was linearized at XhoI site, and was introduced into mouse ES cells, TC1, using the Gene Pulser II (BioRad, MA). A selection medium containing G418 was applied for two weeks from 24 hours after electroporation. The selected ES cell clones were harvested and expanded on the feeder cell layer. The green fluorescence-expressing clones when differentiated into cardiomyocytes were used in this experiment.
c. Cardiomyogenesis modulating activity assay: Embryoid body (EB) was formed by hanging drop culture using about a number of 600 (six hundred) ES cells for two days and it was further expanded by culturing in suspension condition on a Petri-dish for another two days. Then each EB was plated on a well of 96 well culture plates. Test compounds were dissolved in DMSO and diluted with culture media (final 0.05% DMSO) and EB was treated with test compound for 5 days. Culture medium was changed every three days after plating. Expression level of EGFP was measured with FACS (Beckman). For FACS analysis, differentiating cells were dissociated with trypsin. For the determination of the extent of differentiation, EB was observed and photographed with an inverted fluorescence microscope (Zeiss, Germany). Number of beating EBs was counted under the microscope and recorded once daily.

| Structure (SMILES) | fold induction at 20 µM [1] | Cardiomyogenesis: fold change of EGFP expression level compared with DMSO control [2] [fold] |
| --- | --- | --- |
| Cc1ccc(C[C@H]2C(=O)N(CCc3ccc(Cl)cc3)C[C@H]3N2C(=O)CN(Cc2ccccc2)N3C(=O)NCc2ccccc2)cc1 [#78] | 0.75 | 1.70 |
| O=C1[C@H](CC2CCCCC2)N2C(=O)CN(Cc3ccccc3)N(C(=O)NCc3ccccc3)[C@H]2CN1CCc1ccc(Cl)cc1 [#79] | 0.58 | 1.67 |
| O=C1[C@H](Cc2ccc(F)cc2)N2C(=O)CN(Cc3ccccc3)N(C(=O)NCc3ccccc3)[C@H]2CN1CCc1ccc(Cl)cc1 [#80] | 0.19 | 1.49 |
| O=C1[C@H](Cc2ccc(F)c(F)c2)N2C(=O)CN(Cc3ccccc3)N(C(=O)NCc3ccccc3)C2CN1CCc1ccc(Cl)cc1 (stereo partly drawn) [#81] | 1.84 | 0.81 |
| C=CCN1CC(=O)N2[C@@H](Cc3ccc(OCc4ccccc4)cc3)C(=O)N(Cc3ccc(F)cc3)C[C@@H]2N1C(=O)NCc1ccccc1 [#83] | 0.36 | 2.02 |
| C=CCN1CC(=O)N2[C@@H](Cc3ccc(C)cc3)C(=O)N(Cc3ccc(F)cc3)C[C@@H]2N1C(=O)NCc1ccccc1 [#84] | 0.69 | 1.32 |
| C=CCN1CC(=O)N2[C@@H](Cc3ccc(F)cc3)C(=O)N(Cc3ccc(F)cc3)C[C@@H]2N1C(=O)NCc1ccccc1 [#85] | 0.62 | 1.65 |
| C=CCN1CC(=O)N2[C@@H](CC(C)C)C(=O)N(CCc3ccccc3)C[C@@H]2N1C(=O)NCc1ccccc1 [#86] | 0.54 | 1.34 |
| C=CCN1CC(=O)N2[C@@H](Cc3ccccc3)C(=O)N(CCc3ccccc3)C[C@@H]2N1C(=O)NCc1ccccc1 [#87] | 0.59 | 0.89 |
| C=CCN1CC(=O)N2C(CC(=O)O)C(=O)N(CCc3ccccc3)C[C@@H]2N1C(=O)NCc1ccccc1 (stereo partly drawn) [#88] | 0.64 | 1.34 |
| C=CCN1CC(=O)N2C(CN(CCc3ccccc3)C(=O)[C@@H]2CCC(=O)O)N1C(=O)NCc1ccccc1 (stereo partly drawn) [#89] | 1.16 | 1.26 |
| C=CCN1CC(=O)N2[C@@H](c3ccccc3)C(=O)N(CCc3ccccc3)C[C@@H]2N1C(=O)NCc1ccccc1 [#90] | 0.51 | 2.10 |
| C=CCOC(=O)NCCC[C@@H]1C(=O)N(CCc2ccccc2)C[C@H]2N1C(=O)CN(CC=C)N2C(=O)NCc1ccccc1 [#91] | 1.13 | 2.23 |
| CCCN1CC(=O)N2C(Cc3ccc(O)cc3)C(=O)N(CCC(C)C)CC2N1C(=O)NCc1ccccc1 (stereo not drawn) [#92] | 0.7 | 2.13 |
| CCCN1CC(=O)N2C(CN(CCC(C)C)C(=O)[C@@H]2CC(C)C)N1C(=O)NCc1ccccc1 (stereo partly drawn) [#93] | 0.63 | 0.57 |
| CCCN1CC(=O)N2C(CC(=O)O)C(=O)N(CCC(C)C)C[C@H]2N1C(=O)NCc1ccccc1 (stereo partly drawn) [#94] | 0.69 | 3.02 |
| CCCN1CC(=O)N2C(CN(CCC(C)C)C(=O)[C@@H]2CCC(=O)O)N1C(=O)NCc1ccccc1 (stereo partly drawn) [#95] | 1.19 | 2.22 |
| CCCCNC(=O)N1[C@H]2CN(CCc3ccc(OC)cc3)C(=O)[C@H](Cc3ccc(O)cc3)N2C(=O)CN1Cc1ccc(C)cc1 [#96] | 0.77 | 0.54 |
